# Measurements published in US20120219506A1, “Catenae: Serosal Cancer Stem Cells” (SLOAN KETTERING INSTITUTE FOR CANCER RESEARCH, priority 2009, published 2012).
# Read-outs that look alike come from different tables or passages of the source.
# Columns and labels:
# Ovcar3-GTL catenae [1] = assay: Catena morphology on basement membrane matrix (Matrigel) coated plates; assay type: cell-based, human; conditions: for morphology on Matrigel, hyaluronidase-pretreated cells grown with 4-MU and Y27632 / morphology on Matrigel, mechanically-dissociated cells grown with 4-MU and Y27632: 1 mM 4-MU together with 50 μM Y27632, imaged after 4 days
# Procedure: Ovcar3-GTL catenae were dissociated to single cells by mechanical dissociation or by hyaluronidase treatment and cultured on basement membrane matrix (Matrigel) coated plates. A similar set of cultures were grown in the presence of 1 mM 4-methylumbelliferone (4-MU) and 50 μM Y27632, the former being an hyaluronan synthase 2 (HAS2) inhibitor and the latter being a Rho-ROCK inhibitor. The cultures were imaged after 4 days.
# catena cells [2] = assay: Morphological effects on catena cells observed under the microscope; assay type: cell-based, human; conditions: for catena cells observed under the microscope in cultures treated with high concentrations: 100 μM (rapamycin 25 μM, lovastatin acid 50 μM), cells arrested at mitosis, re-entered cell cycle without drug
# Procedure: When these cells were harvested and cultured in the absence of drugs, they re-entered the cell cycle.
# These spheroids continued to grow in the presence of high concentrations of rapamycin (>50 uM) and retained their spheroid morphology.
# The change in the cell-to-cell junctions might also be a resistance mechanism where cells activate signaling pathways by increasing cell-to-cell attachment or more tightly control transport of molecules between cells. […]
# Ovcar3-GTL catenae [3] = assay: Ovcar3-GTL catena drug sensitivity (proliferation, alamarBlue, 384-well)
# Procedure: Cultures of Ovcar3-GTL catenae were mechanically or enzymatically dissociated to single cells. For mechanical dissociation, catena cultures were pipetted vigorously, an equal volume of M5-FCS media was added to decrease the viscosity, and the cells were pelleted. For enzymatic dissociation, catena cultures were incubated at 5 mg/ml collagenase IV (Invitrogen) for 10 min at 37° C. followed by centrifugation to pellet the cells. Cells were resuspended in M5-FCS to produce homogenous cultures of single cells which were seeded in 50 μL aliquots per well at the indicated cell densities and grown for the indicated times before addition of test compounds or other reagents.
# The amount of fluorescence or absorbance is proportional to the number of living cells and corresponds to the cells metabolic activity. […] Absorbance of alamarBlue® is monitored at 570 nm, using 600 nm as a reference wavelength. Larger fluorescence emission intensity (or absorbance) values correlate to an increase in total metabolic activity from cells.
# For these experiments, 25 Ovcar3-GTL catena or 250 Ovcar3-GTL catena cells were seeded per well as described above. […] Five days after adding the test compound, alamarBlue® was added to the cultures and culture absorbance was measured 48 hours later.
# catena cells [4] = assay: Exosome release from catena cells (exosome isolation and FACS); assay type: cell-based, human; conditions: PMA 10 uM
# Procedure: To prepare secreted and exosomal fractions from catenae, the catenae were grown in serum-free media with insulin as described in Example 28 for 5 days, until the culture was near confluent. All centrifugations were done at 4° C. to preserve protein integrity. The cells were removed by centrifugation at 300×g for 10 min. The supernatant fraction was further spun down at 2,000×g for 20 minutes and at 10,000×g for 30 min to remove cellular debris. This supernatant was subjected to ultracentrifugation at100,000×g for 2.5 h. The new supernatant fraction, containing the soluble proteins secreted by catenae (i.e., the catena secretome) was concentrated 200-fold by through a 10 kDa molecular weight cutoff filter. The resulting pellet from the ultracentrifugation was washed twice with PBS, with each wash followed by another round of ultracentrifugation under the same conditions, and kept at 4° C. for further analysis. Exosomes were isolated from Ovcar5 and A2780 human ovarian cancer cell lines that were grown as attached mesenchymal monolayers and from two ovarian cancer patient ascites samples using the same methodology. […]
# The exosome isolation followed by FACS analysis allows rapid analysis of ovarian cancer stem cell exosomes both quantitatively and qualitatively. […]
# [5] = Viscosity of catena culture supernatant after hyaluronidase; conditions: a few drops 10 mg/mL hyaluronidase
# Procedure: In contrast, Ovcar3-GTL epithelial cells were 98% positive for CA125 by FACS and secreted 800 units/ml of CA125 into culture media. For the ELISA, cell supernatants were collected by spinning the cultures at 300×g for 5 min to remove cells and assayed by CA125 ELISA using an automated instrument, ADVIA Centaur XP Immunoassay System (Siemens Healthcare Diagnostics Inc.).
# Hyaluronan is a glycosaminoglycan found in extracellular matrix and functions to provide microenvironmental cues in a number of biological processes, including tumor development [Toole, 2004]. Supernatants prepared as above were treated with a few drops 10 mg/mL hyaluronidase (Sigma) in deionized water.
# Ovcar3-GTL catenae [6] = assay: Particle exclusion experiment with red blood cells (glycocalyx visualisation); assay type: cell-based, human; conditions: brief incubation with hyaluronidase, RBCs overnight
# Procedure: To visualize the glycocalyx surrounding a catena, a particle exclusion experiment was conducted using red blood cells (RBCs). Catenae were mechanically dissociated by pipetting or by brief incubation with hyaluronidase as before. RBCs from human peripheral blood were added and the mixture was incubated overnight in culture media. The cells were observed under the light microscope for the presence of a glycocalyx separating catena cells from the RBCs.
# catena cells [7] = assay: Growth of catena cells upon disruption of the glycocalyx; assay type: cell-based, human
# Procedure: To investigate the how catena cells grow upon disruption of the glycocalyx, catenae were dissociated to single cells with hyaluronidase treatment and plated in tissue culture treated flasks with or without 10% hyaluronidase enzyme solution (10 mg/ml) to prevent the formation of glycocalyx. In parallel, catenae were dissociated mechanically and plated in the absence of hyaluronidase.
compound,measurement,setting,value
Cc1cc(=O)oc2cc(O)ccc12 [4-methylumbelliferone],"morphology on Matrigel, hyaluronidase-pretreated cells grown with 4-MU and Y27632",Ovcar3-GTL catenae [1],the cultures did not become viscous and the attached cells formed filopodial extensions
same,"morphology on Matrigel, mechanically-dissociated cells grown with 4-MU and Y27632",Ovcar3-GTL catenae [1],"did not become viscous; rather, the cells attached to the plates and formed filopodial extensions"
"O=c1[nH]cc(F)c(=O)[nH]1 [5-FU, 5-fluorouracil]",morphological change of catenae on treatment,catena cells [2],formation of fused chains
same,Increase in Resistance Day 6/Day 1,Ovcar3-GTL catenae [3]; IC50 day 6 / IC50 day 1,33 fold
"C=CCNC1=C2C[C@@H](C)C[C@H](OC)[C@H](O)[C@@H](C)/C=C(\C)[C@H](OC(N)=O)[C@@H](OC)/C=C\C=C(/C)C(=O)NC(=CC1=O)C2=O [17AAG, 17-AAG/Tanespimycin]",Increase in Resistance Day 6/Day 1,Ovcar3-GTL catenae [3]; IC50 day 6 / IC50 day 1,33 fold
Nc1ccn([C@@H]2O[C@H](CO)[C@@H](O)[C@@H]2O)c(=O)n1 [Ara-C],catena cells observed under the microscope in cultures treated with high concentrations,catena cells [2],"live, large single cells"
same,Increase in Resistance Day 6/Day 1,Ovcar3-GTL catenae [3]; IC50 day 6 / IC50 day 1,"2,000 fold"
"C/C(=C\c1csc(C)n1)[C@@H]1C[C@@H]2O[C@]2(C)CCC[C@H](C)[C@H](O)[C@@H](C)C(=O)C(C)(C)[C@@H](O)CC(=O)O1 [Epo-B, Epothilone B]",Increase in Resistance Day 6/Day 1,Ovcar3-GTL catenae [3]; IC50 day 6 / IC50 day 1,"4,000 fold"
O=c1cc(N2CCOCC2)oc2c(-c3ccccc3)cccc12 [LY294002],Increase in Resistance Day 6/Day 1,Ovcar3-GTL catenae [3]; IC50 day 6 / IC50 day 1,4 fold
CC(=O)c1c(C)c2cnc(Nc3ccc(N4CCNCC4)cn3)nc2n(C2CCCC2)c1=O [PD-0332991],Increase in Resistance Day 6/Day 1,Ovcar3-GTL catenae [3]; IC50 day 6 / IC50 day 1,83 fold
C[C@@H](Oc1cc(-c2cnn(C3CCNCC3)c2)cnc1N)c1c(Cl)ccc(F)c1Cl [PF-02341066],Increase in Resistance Day 6/Day 1,Ovcar3-GTL catenae [3]; IC50 day 6 / IC50 day 1,31 fold
O=C(CCCCCCC(=O)Nc1ccccc1)NO [SAHA],morphological change of catenae on treatment,catena cells [2],formation of tight spheroids
C[C@@H](N)[C@H]1CC[C@H](C(=O)Nc2ccncc2)CC1 [Y27632],"morphology on Matrigel, hyaluronidase-pretreated cells grown with 4-MU and Y27632",Ovcar3-GTL catenae [1],the cultures did not become viscous and the attached cells formed filopodial extensions
same,"morphology on Matrigel, mechanically-dissociated cells grown with 4-MU and Y27632",Ovcar3-GTL catenae [1],"did not become viscous; rather, the cells attached to the plates and formed filopodial extensions"
Cc1ccc2c(c1)C(=O)C1(O)CCN(c3ccccc3)C1=N2 (stereo not shown) [blebbistatin],exosome release,catena cells [4],inhibited exosome release
C/C1=C/C[C@@H](/C(C)=C/c2csc(C)n2)OC(=O)C[C@H](O)C(C)(C)C(=O)[C@H](C)[C@@H](O)[C@@H](C)CCC1 [dEpoB],Increase in Resistance Day 6/Day 1,Ovcar3-GTL catenae [3]; IC50 day 6 / IC50 day 1,"250,000 fold"
COc1cccc2c1C(=O)c1c(O)c3c(c(O)c1C2=O)C[C@@](O)(C(C)=O)C[C@@H]3O[C@H]1C[C@H](N)[C@H](O)[C@H](C)O1 [daunarubacin],Increase in Resistance Day 6/Day 1,Ovcar3-GTL catenae [3]; IC50 day 6 / IC50 day 1,133 fold
COc1cccc2c1C(=O)c1c(O)c3c(c(O)c1C2=O)C[C@@](O)(C(=O)CO)C[C@@H]3O[C@H]1C[C@H](N)[C@H](O)[C@H](C)O1 [doxorubicin],Increase in Resistance Day 6/Day 1,Ovcar3-GTL catenae [3]; IC50 day 6 / IC50 day 1,32 fold
COc1cc([C@@H]2c3cc4c(cc3[C@@H](O[C@@H]3O[C@@H]5CO[C@@H](C)O[C@H]5[C@H](O)[C@H]3O)[C@H]3COC(=O)[C@H]23)OCO4)cc(OC)c1O [etoposide],Increase in Resistance Day 6/Day 1,Ovcar3-GTL catenae [3]; IC50 day 6 / IC50 day 1,125 fold
C/C(=C\c1csc(C)n1)[C@@H]1C/C=C(/C(F)(F)F)C/C=C/[C@H](C)[C@H](O)[C@@H](C)C(=O)C(C)(C)[C@@H](O)CC(=O)O1 [fludelone],catena cells observed under the microscope in cultures treated with high concentrations,catena cells [2],"live, large single cells"
CC[C@H](C)C(=O)O[C@H]1C[C@@H](C)C=C2C=C[C@H](C)[C@H](CC[C@@H](O)C[C@@H](O)CC(=O)O)[C@H]21 [lovastatin acid],catena cells observed under the microscope in cultures treated with high concentrations,catena cells [2],"live, large single cells"
same,Increase in Resistance Day 6/Day 1,Ovcar3-GTL catenae [3]; IC50 day 6 / IC50 day 1,2 fold
CO[C@@]12[C@H](COC(N)=O)C3=C(C(=O)C(C)=C(N)C3=O)N1C[C@@H]1N[C@@H]12 [mitomycin-C],Increase in Resistance Day 6/Day 1,Ovcar3-GTL catenae [3],60 fold
CC(=O)O[C@H]1C(=O)[C@@]2(C)[C@H]([C@H](OC(=O)c3ccccc3)[C@]3(O)C[C@H](OC(=O)[C@H](O)[C@@H](NC(=O)c4ccccc4)c4ccccc4)C(C)=C1C3(C)C)[C@]1(OC(C)=O)CO[C@@H]1C[C@@H]2O [paclitaxel],catena cells observed under the microscope in cultures treated with high concentrations,catena cells [2],"live, large single cells"
same,IC50,"Ovcar3-GTL catenae [3]; Homo sapiens, read-out: IC50 Addition on Day 1",0.012 nM
CCCCCCCCCCCCCC(=O)O[C@@H]1[C@@H](C)[C@@]2(O)[C@@H](C=C(CO)C[C@]3(O)C(=O)C(C)=C[C@@H]23)[C@@H]2C(C)(C)[C@]12OC(C)=O [phorbol 12-myristate 13-acetate],exosome release,catena cells [4],induced exosomes release
CO[C@H]1C[C@@H]2CC[C@@H](C)[C@@](O)(O2)C(=O)C(=O)N2CCCC[C@H]2C(=O)O[C@H]([C@H](C)C[C@@H]2CC[C@@H](O)[C@H](OC)C2)CC(=O)[C@H](C)/C=C(\C)[C@@H](O)[C@@H](OC)C(=O)[C@H](C)C[C@H](C)/C=C/C=C/C=C/1C [rapamycin],Increase in Resistance Day 6/Day 1,Ovcar3-GTL catenae [3]; IC50 day 6 / IC50 day 1,2 fold
CC[C@@]1(O)C(=O)OCc2c1cc1n(c2=O)Cc2cc3c(CN(C)C)c(O)ccc3nc2-1 [topotecan],catena cells observed under the microscope in cultures treated with high concentrations,catena cells [2],"live, large single cells"
same,Increase in Resistance Day 6/Day 1,Ovcar3-GTL catenae [3]; IC50 day 6 / IC50 day 1,"5,000 fold"
hyaluronidase,morphological change of catenae on treatment,catena cells [2],lose their polarity and form irregular aggregates
same,"morphology on Matrigel, cells treated with only hyaluronidase",Ovcar3-GTL catenae [1]; imaged after 4 days,attached to extracellular matrix and grew as attached irregular aggregates
same,viscosity of the culture supernatant,[5],rapidly reduced the viscosity of the supernatant
same,glycocalyx in particle exclusion experiment,Ovcar3-GTL catenae [6],completely lacked a glycocalyx
same,"growth of catena cells after brief hyaluronidase treatment, plated without enzyme",catena cells [7],no longer formed free floating chains but rather proliferated as irregular aggregates in suspension
same,growth of catena cells continuously treated with hyaluronidase,catena cells [7]; 10% hyaluronidase enzyme solution (10 mg/ml),attached to tissue culture plates and formed epithelial and mesenchymal monolayers
iso-oxazole-fludelone,catena cells observed under the microscope in cultures treated with high concentrations,catena cells [2],"live, large single cells"
same,Increase in Resistance Day 6/Day 1,Ovcar3-GTL catenae [3]; IC50 day 6 / IC50 day 1,"33,333 fold"
